Read-outs that look alike come from different tables or passages of the source.
Tests used:
A375 melanoma = experiment: in vitro cytotoxicity (antiproliferative activity) on A375 melanoma line; format: cell-based, human; conditions: for activity compared with EAPB0203: A375, comparing IC50 values of Table 3
Excerpt: Antiproliferative activity was first measured on a cancer cell line of human origin, A375 melanoma.
Imiquimod and fotemustine (Muphoran®) are used as controls in this study.
(§1) Several human carcinoma cell lines were used: • Lines A375, M4Be, RPMI7591 from human melanoma. • Line LS174T from colon carcinoma. • Line A 2780 from ovarian carcinoma. • The Raji line from B lymphoma. • Line MCF7 from breast carcinoma.
IC50 (concentration of the product tested which inhibits 50% of the maximum cell proliferation observed in the control wells) is determined graphically from the curve of the percentage of cell proliferation as a function of concentration of the product tested.

in vivo = conditions: rat
Method: (§2) Methods of assaying compounds EAPB0203, EAPB0503 and EAPB0603 by high performance liquid chromatography and detection by mass spectrometry (LC/ESI-MS) were developed and validated in human and rat plasmas. Pre-treatment of the samples consists of a liquid solid extraction preceded by precipitation of plasma proteins in acid medium. The chromatographic column used is C8 Zorbax eclipse XDB and the mobile phase (gradient) a mixture of acetonitrile and formate buffer (pH 3) (flow rate, 0.8 ml/min). The […] from 92 to 113%. The extraction coefficients are higher than 72%. The quantification limit is 5 μg/l for all analytes. Stability tests of the compounds in the matrices were also carried out. These methods were used to determine the pharmacokinetic parameters of compounds EAPB0203, EAPB0503 and EAPB0603 in the rat. The lethal doses 50% of compounds EAPB0203 and EAPB0503 are respectively 14.8 and 7.6 mg/kg.

Raji (B lymphoma) = experiment: in vitro cytotoxicity on Raji B lymphoma line; format: cell-based, human; conditions: Table 2, unit inferred
Excerpt: as §1

[1] = lethal doses 50% reported in the pharmacokinetic study; format: in vivo; conditions: species and route not stated in the sentence (rat study)
Method: as §2

LS174T (colon cancer) = experiment: in vitro cytotoxicity on LS174T colon cancer line; format: cell-based; conditions: Homo sapiens, Table 2, unit inferred
Excerpt: as §1

M4Be human melanoma = experiment: anti-proliferative activity in vivo, M4Be human melanoma xenografted in athymic mice; conditions: 20 mg/kg once per week i.p.; sacrifice at tumour volume 2 cm^3
Method: FIG. 1: Effects of fotemustine (20 mg/kg once per week for 3 weeks) and EAPB0203 (20 mg/kg twice per week for 3 weeks) on tumour growth in athymic Swiss mice xenografted with M4Be human melanoma cell line.
Δ, control; ▪, EAPB0203; ●, fotemustine. The data are the results of only one experiment carried out on six mice per group. The results are represented as mean±SEM.
In this study, data are presented relating to the activity of EAPB0203 on the volume of a type of human melanoma tumour model (M4Be lines), xenografted in athymic mice. This study required as a preliminary step several tests of grafts of human melanoma cell lines in athymic mice before establishing the adequate animal model. The in vivo study was performed following the in vitro experiments described previously.
The activity and specificity of EAPB0203 in vivo on tumour growth of human melanoma are evaluated by monitoring tumour development in mice carrying M4Be melanoma treated by administration of fotemustine and EAPB0203 at various doses.
For this study, 18 Swiss nude mice (3 groups of 6 mice) were used. M4Be cancer cells in suspension were injected subcutaneously into the right flank of each athymic Swiss nude female 7-week-old mouse weighing 20-22 g at the beginning of the protocol. The mice were then maintained in a sterile atmosphere and received aseptic food and water. The weight of the mouse and the growth of the tumour in three dimensions were recorded twice a week.
A first group of 6 mice (reference) will receive fotemustine by intra-peritoneal route at a dose of 20 mg/kg once per week for 3 weeks, beginning 7 days after inoculation at the time when the tumour will be visible and palpable. A second group of 6 mice will receive EAPB0203 at the same dose of 20 mg/kg via intra-peritoneal route but twice per week (40 mg/kg per week). The third group (control) of 6 mice will receive only the administration carrier. Tumour volume is calculated by the following formula: length X width X height X 0.52, and is expressed as mean±SEM mm^3.
For fotemustine and EAPB0203, the sequence of administrations is a treatment of three weeks, then two weeks without treatment, and then a second treatment of three weeks.

M4Be (melanoma) = experiment: in vitro cytotoxicity on M4Be melanoma line; format: cell-based; conditions: Homo sapiens, read-out: IC50 M4Be
Excerpt: as §1

RPMI7591 (melanoma) = experiment: in vitro cytotoxicity on RPMI7591 melanoma line; format: cell-based; conditions: Homo sapiens, read-out: IC50 RPMI7591
Excerpt: as §1

MCF7 (breast cancer) = experiment: in vitro cytotoxicity on MCF7 breast cancer line; format: cell-based; conditions: Homo sapiens, Table 2, unit inferred
Excerpt: as §1

[2] = Homo sapiens, A-375, A375 melanoma line, Table 1, IC50 and standard deviation, read-out: IC50
[3] = Homo sapiens, A-375, A375, Table 3, read-out: IC50
[4] = A375, comparison of IC50 values

CN(C)c1nc2ccccc2n2c(CCc3ccccc3)cnc12 [EAPB0204, N,N-Dimethyl-1-(2-phenylethyl)imidazo[1,2-a]quinoxalin-4-amine]
IC50 (A375 melanoma; [2]): 80.1 ± 7 µM

CNc1nc2ccccc2n2c(-c3ccccc3OC)cnc12 [EAPB0803, 1-(2-methoxyphenyl)-N-methylimidazo[1,2-a]quinoxalin-4-amine]
IC50 (A375 melanoma; [3]): 122 ± 25 µM

Clc1nc2ccccc2n2c(CCc3ccccc3)cnc12 [EAPB0201, 4-Chloro-1-(2-phenylethyl)imidazo[1,2-a]quinoxaline]
IC50 (A375 melanoma; [2]): 24 ± 0.5 µM

CNc1nc2ccccc2n2c(-c3cccc(C(F)(F)F)c3)cnc12 [EAPB01103]
IC50 (A375 melanoma; A375, Table 3, read-out: IC50): 1.28 ± 0.18 µM

CC(C)Cc1cnc2c(N(C)C)nc3ccccc3n12 [EAPB0104, 1-Isobutyl-N,N-dimethylimidazo[1,2-a]quinoxalin-4-amine]
IC50 (A375 melanoma; [2]): 66.3 ± 7.5 µM

Nc1nc2ccccc2n2c(CCc3ccccc3)cnc12 [EAPB0202, 1-(2-phenylethyl)imidazo[1,2-a]quinoxalin-4-amine]
activity times higher than that of fotemustine (A375 melanoma; [4]): 70 times | activity times higher than that of imiquimod (A375 melanoma; [4]): 30 times | times more active than EAPB0204 (A375 melanoma; [4]): ~2 times | IC50 (A375 melanoma; [2]): 2.35 µM

CNc1nc2ccccc2n2c(-c3cccc(Cl)c3)cnc12 [EAPB01203, 1-(3-chlorophenyl)-N-methylimidazo[1,2-a]quinoxalin-4-amine]
IC50 (A375 melanoma; [3]): 1.78 ± 0.35 µM

CNc1nc2ccccc2n2c(-c3cccc(O)c3)cnc12 [EAPB0603, 1-(3-hydroxyphenyl)-N-methylimidazo[1,2-a]quinoxalin-4-amine]
metabolic relation (in vivo): active metabolite of EAPB0503 | elimination half-life (metabolite) (in vivo; iv, 5 mg/kg): 4.7 h | activity compared with EAPB0203 (A375 melanoma): higher than that of EAPB0203 | IC50 (A375 melanoma; [3]): 0.56 ± 0.12 µM

CN(Cc1cnc2nc(N)nc(N)c2n1)c1ccc(C(=O)N[C@@H](CCC(=O)O)C(=O)O)cc1 [Methothrexate, methothrexate]
IC50 (Raji (B lymphoma)): 0.04 ± 0.005 µM

CNc1nc2ccccc2n2c(-c3cccc(OC)c3)cnc12 [EAPB0503, 1-(3-methoxyphenyl)-N-methylimidazo[1,2-a]quinoxalin-4-amine]
Vd (in vivo; iv, 5 mg/kg): 5.6 L/kg | area under the curve of plasma concentrations (in vivo; iv, 5 mg/kg): 2310 ng·h/mL | clearance (in vivo; iv, 5 mg/kg): 36.7 mL/min/kg | half-life (in vivo; iv, 5 mg/kg): 1.76 h | lethal doses 50% [1]: 7.6 mg/kg | activity compared with EAPB0203 (A375 melanoma): higher than that of EAPB0203 | IC50 (A375 melanoma; [3]): 0.18 ± 0.09 µM

CCOc1cccc(-c2cnc3c(NC)nc4ccccc4n23)c1 [EAPB0903, 1-(3-ethoxyphenyl)-N-methylimidazo[1,2-a]quinoxalin-4-amine]
activity compared with EAPB0203 (A375 melanoma): higher than that of EAPB0203 | IC50 (A375 melanoma; [3]): 0.3 ± 0.01 µM

CNc1nc2ccccc2n2c(-c3cccc(C(=O)O)c3)cnc12 [EAPB01303, 1-(3-carboxyphenyl)-N-methylimidazo[1,2-a]quinoxalin-4-amine]
IC50 (A375 melanoma; [3]): 3.47 ± 0.55 µM

CCc1c2c(nc3ccc(OC(=O)N4CCC(N5CCCCC5)CC4)cc13)-c1cc3c(c(=O)n1C2)COC(=O)[C@]3(O)CC [Irinotecan, irinotecan]
IC50 (LS174T (colon cancer)): 1.16 ± 0.07 µM

CCOP(=O)(OCC)C(C)NC(=O)N(CCCl)N=O (stereo not drawn) [Fotemustine, fotemustine, reference compound]
day on which the last mice were euthanatized (M4Be human melanoma): 76 days | IC50 (M4Be (melanoma)): 326 ± 34 µM | IC50 (A375 melanoma; Homo sapiens, A-375, read-out: IC50 A375): 173 ± 24 µM | IC50 (RPMI7591 (melanoma)): 125 ± 49 µM

CNc1nc2ccccc2n2c(-c3ccc(OC)cc3)cnc12 [EAPB0703, 1-(4-methoxyphenyl)-N-methylimidazo[1,2-a]quinoxalin-4-amine]
activity compared with EAPB0203 (A375 melanoma): higher than that of EAPB0203 | IC50 (A375 melanoma; [3]): 0.37 ± 0.4 µM

CNc1nc2ccccc2n2c(-c3ccccc3)cnc12 [EAPB0403, N-methyl-1-phenylimidazo[1,2-a]quinoxalin-4-amine]
IC50 (A375 melanoma; [3]): 2.19 ± 0.08 µM

CNc1nc2ccccc2n2c(-c3cccc(F)c3)cnc12 [EAPB01403, 1-(3-fluorophenyl)-N-methylimidazo[1,2-a]quinoxalin-4-amine]
IC50 (A375 melanoma; [3]): 24.9 ± 0.27 µM

1-furan-N-methylimidazo[1,2-a]quinoxalin-4-amine [EAPB01703]
IC50 (A375 melanoma; A375, Table 3, read-out: IC50): 74.1 ± 3.1 µM

CNc1nc2ccccc2n2c(-c3cccc(C#N)c3)cnc12 [EAPB01503, 1-(3-cyanophenyl)-N-methylimidazo[1,2-a]quinoxalin-4-amine]
IC50 (A375 melanoma; [3]): 27 ± 2.2 µM

COc1cccc2c1C(=O)c1c(O)c3c(c(O)c1C2=O)C[C@@](O)(C(=O)CO)C[C@@H]3O[C@H]1C[C@H](N)[C@H](O)[C@H](C)O1 [Doxorubicine, doxorubicin]
IC50 (MCF7 (breast cancer)): 0.13 ± 0.01 µM

CNc1nc2ccccc2n2c(-c3cccc(Br)c3)cnc12 [EAPB01003, 1-(3-bromophenyl)-N-methylimidazo[1,2-a]quinoxalin-4-amine]
activity compared with EAPB0203 (A375 melanoma): higher than that of EAPB0203 | IC50 (A375 melanoma; [3]): 0.65 ± 0.02 µM

CC(C)Cn1cnc2c(N)nc3ccccc3c21 [Imiquimod, imiquimod]
IC50 (M4Be (melanoma); Table 2, unit inferred): 33.5 ± 7.7 µM | IC50 (LS174T (colon cancer)): 34.4 ± 9.7 µM | IC50 (A375 melanoma; Homo sapiens, A-375, Table 2, unit inferred, read-out: IC50 A375): 70.3 ± 4.3 µM | IC50 (MCF7 (breast cancer)): 145 ± 7 µM | IC50 (RPMI7591 (melanoma); Table 2, unit inferred): 53.7 ± 9.8 µM | IC50 (Raji (B lymphoma); Homo sapiens, Raji): 139 ± 12 µM

CNc1nc2ccccc2n2cc(-c3cccc(OC)c3)nc12 [N-methyl-2-(3-methoxyphenyl)imidazo[1,2-a]quinoxalin-4-amine]
activity times higher than EAPB0203 (A375 melanoma; A375): 100 times | activity times higher than that of EAPB0503 (A375 melanoma; A375): 10 times | IC50 (A375 melanoma; Homo sapiens, A-375, melanoma (A375), text b219, read-out: IC50): 0.018 µM

CNc1nc2ccccc2n2c(CC(C)C)cnc12 [EAPB0103, 1-Isobutyl-N-methylimidazo[1,2-a]quinoxalin-4-amine]
IC50 (A375 melanoma; [2]): 31.6 ± 2 µM

CNc1nc2ccccc2n2c(-c3cccc([N+](=O)[O-])c3)cnc12 [EAPB01603, 1-(3-nitrophenyl)-N-methylimidazo[1,2-a]quinoxalin-4-amine]
IC50 (A375 melanoma; [3]): 40 ± 3.9 µM

COc1nc2ccccc2n2c(CCc3ccccc3)cnc12 [EAPB0206, 4-Methoxy-1-(2-phenylethyl)imidazo[1,2-a]quinoxaline]
IC50 (A375 melanoma; [2]): 47.8 ± 5 µM
